In the supplement of paper PMC10011410:
± gives the standard deviation of the averaged measurements.

What was measured:
U-2 OS [1] = experiment: relative cell count vs DMSO (cell painting) (fraction of DMSO control); higher = more cells remaining (less cytotoxic); conditions: 24 h
Method in brief: (§1)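 Images taken on an Opera Phenix of U-2 OS cells stained with MitoTracker, concanavalin A, phalloidin, wheat germ agglutinin, Hoechst and SYTO 14 were processed in CellProfiler, with features normalized to DMSO cells on the same plate. The cells, about 1,500 per well in 384-well plates, had been treated by pin tool for 24 h at 37 °C, usually at six 2-fold concentrations from 20 μM to 625 nM. The activity score measures Mahalanobis distance from DMSO wells, and cell count is expressed relative to DMSO wells. Each value averages four replicate plates.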

U-2 OS [2] = experiment: cell painting activity score (Mahalanobis distance from DMSO wells); higher = stronger morphological phenotype; conditions: 24 h
Method in brief: as §1

U-2 OS [3] = experiment: AUC of culture confluence over time (live-cell imaging) (AUC (confluence % x time)); higher = more confluent culture (less growth inhibition)
Method in brief: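 The value is the area under the curve of confluence plotted against time. U-2 OS cells in F-12K medium with 10% FBS were seeded at 750 per well in 384-well plates, then treated by pin tool 24 h later, most compounds at 20, 10 and 5 μM with 0.2% DMSO. At 37 °C, an Incucyte S3 with a 10x objective imaged the wells every 4 h for up to 60 h.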

U-2 OS [4] = experiment: cell viability (CellTiter-Glo) relative to DMSO (% of control); higher = more viable; conditions: 24 h
Experimental: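 Cell viability of U-2 OS cells by CellTiter-Glo after 24 h compound treatment at 5, 10 and 20 uM (some at 40 and 80 uM), measured in parallel with the glutathione assay, as percent of DMSO control. Five technical replicate plates, averaged.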

U-2 OS [5] = experiment: intracellular GSH:GSSG ratio (calculated); higher = more reduced glutathione pool; conditions: 24 h
Experimental: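 Intracellular glutathione in U-2 OS cells after 24 h compound treatment at 5, 10 and 20 uM (some at 40 and 80 uM). Total glutathione and GSSG were measured with the GSH/GSSG-Glo kit, and the GSH:GSSG ratio was calculated. Mean of five technical replicate plates.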

U-2 OS [6] = experiment: total intracellular glutathione (GSH + GSSG) relative to DMSO (% of control); higher = more glutathione; conditions: 24 h
Experimental: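 Total intracellular glutathione (GSH + GSSG) in U-2 OS cells by GSH/GSSG-Glo after 24 h compound treatment at 5, 10 and 20 uM (some at 40 and 80 uM), as percent of DMSO control. Five technical replicate plates, averaged.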

CCC(=O)N1CCN(c2ccc(-n3c(=O)ccc4cnc5ccc(-c6cnc7ccccc7c6)cc5c43)cc2C(F)(F)F)CC1
relative cell count (U-2 OS [1]; 0.625 µM): 0.752 | relative cell count (U-2 OS [1]; 1.25 µM): 0.716 | relative cell count (U-2 OS [1]; 2.5 µM): 0.68 | relative cell count (U-2 OS [1]; 5 µM): 0.714 | relative cell count (U-2 OS [1]; 10 µM): 0.683 | relative cell count (U-2 OS [1]; 20 µM): 0.656 | cell painting activity score (U-2 OS [2]; 0.625 µM): 12.8 | cell painting activity score (U-2 OS [2]; 1.25 µM): 12.6 | cell painting activity score (U-2 OS [2]; 2.5 µM): 12.4 | cell painting activity score (U-2 OS [2]; 5 µM): 13.4 | cell painting activity score (U-2 OS [2]; 10 µM): 13.2 | cell painting activity score (U-2 OS [2]; 20 µM): 14.2 | AUC of culture confluence over time (U-2 OS [3]; 5 µM): 26.9 | AUC of culture confluence over time (U-2 OS [3]; 10 µM): 27.2 | AUC of culture confluence over time (U-2 OS [3]; 20 µM): 26.1 | cell viability (U-2 OS [4]; 5 µM): 66.4 ± 3.2 | cell viability (U-2 OS [4]; 10 µM): 66.8 ± 3.4 | cell viability (U-2 OS [4]; 20 µM): 61.4 ± 4 | intracellular GSH:GSSG ratio (U-2 OS [5]; 5 µM): 16.1 | intracellular GSH:GSSG ratio (U-2 OS [5]; 10 µM): 15 | intracellular GSH:GSSG ratio (U-2 OS [5]; 20 µM): 13.4 | total intracellular glutathione (U-2 OS [6]; 5 µM): 58.8 ± 4.2 | total intracellular glutathione (U-2 OS [6]; 10 µM): 58.6 ± 4.8 | total intracellular glutathione (U-2 OS [6]; 20 µM): 64 ± 3.3

C=CC(=O)N1CCC[C@@H](n2nc(-c3ccc(Oc4ccccc4)cc3)c3c(N)ncnc32)C1
relative cell count (U-2 OS [1]; 0.625 µM): 1.09 | relative cell count (U-2 OS [1]; 1.25 µM): 1.02 | relative cell count (U-2 OS [1]; 2.5 µM): 1.09 | relative cell count (U-2 OS [1]; 5 µM): 1.11 | relative cell count (U-2 OS [1]; 10 µM): 1.03 | relative cell count (U-2 OS [1]; 20 µM): 1.03 | cell painting activity score (U-2 OS [2]; 0.625 µM): 5.26 | cell painting activity score (U-2 OS [2]; 1.25 µM): 6.98 | cell painting activity score (U-2 OS [2]; 2.5 µM): 6.19 | cell painting activity score (U-2 OS [2]; 5 µM): 8.03 | cell painting activity score (U-2 OS [2]; 10 µM): 8.01 | cell painting activity score (U-2 OS [2]; 20 µM): 12.2 | AUC of culture confluence over time (U-2 OS [3]; 5 µM): 37.7 | AUC of culture confluence over time (U-2 OS [3]; 10 µM): 27.5 | AUC of culture confluence over time (U-2 OS [3]; 20 µM): 20.6 | cell viability (U-2 OS [4]; 5 µM): 87.8 ± 1.4 | cell viability (U-2 OS [4]; 10 µM): 87.6 ± 4 | cell viability (U-2 OS [4]; 20 µM): 82 ± 3.9 | intracellular GSH:GSSG ratio (U-2 OS [5]; 5 µM): 21.3 | intracellular GSH:GSSG ratio (U-2 OS [5]; 10 µM): 20 | intracellular GSH:GSSG ratio (U-2 OS [5]; 20 µM): 13.5 | total intracellular glutathione (U-2 OS [6]; 5 µM): 89.1 ± 3.4 | total intracellular glutathione (U-2 OS [6]; 10 µM): 94.8 ± 4.3 | total intracellular glutathione (U-2 OS [6]; 20 µM): 85.1 ± 9.8

COC[C@H]1OC(=O)c2coc3c2[C@@]1(C)C1=C(C3=O)[C@@H]2CCC(=O)[C@@]2(C)C[C@H]1OC(C)=O
relative cell count (U-2 OS [1]; 0.625 µM): 0.905 ± 0.054 | relative cell count (U-2 OS [1]; 1.25 µM): 0.905 ± 0.038 | relative cell count (U-2 OS [1]; 2.5 µM): 0.882 ± 0.07 | relative cell count (U-2 OS [1]; 5 µM): 0.873 ± 0.059 | relative cell count (U-2 OS [1]; 10 µM): 0.837 ± 0.065 | relative cell count (U-2 OS [1]; 20 µM): 0.785 ± 0.058 | cell painting activity score (U-2 OS [2]; 0.625 µM): 7.82 ± 1.2 | cell painting activity score (U-2 OS [2]; 1.25 µM): 8.77 ± 1.2 | cell painting activity score (U-2 OS [2]; 2.5 µM): 8.96 ± 1.1 | cell painting activity score (U-2 OS [2]; 5 µM): 9.66 ± 1 | cell painting activity score (U-2 OS [2]; 10 µM): 10.4 ± 0.73 | cell painting activity score (U-2 OS [2]; 20 µM): 11.2 ± 0.66 | AUC of culture confluence over time (U-2 OS [3]; 0.625 µM): 57.9 | AUC of culture confluence over time (U-2 OS [3]; 1.25 µM): 56.1 | AUC of culture confluence over time (U-2 OS [3]; 2.5 µM): 56.6 | AUC of culture confluence over time (U-2 OS [3]; 5 µM): 49.5 | AUC of culture confluence over time (U-2 OS [3]; 10 µM): 38.5 | AUC of culture confluence over time (U-2 OS [3]; 20 µM): 28.4 | cell viability (U-2 OS [4]; 5 µM): 83.6 ± 1.5 | cell viability (U-2 OS [4]; 10 µM): 76 ± 2.8 | cell viability (U-2 OS [4]; 20 µM): 69.3 ± 1.1 | intracellular GSH:GSSG ratio (U-2 OS [5]; 5 µM): 26.3 | intracellular GSH:GSSG ratio (U-2 OS [5]; 10 µM): 27.5 | intracellular GSH:GSSG ratio (U-2 OS [5]; 20 µM): 21.8 | total intracellular glutathione (U-2 OS [6]; 5 µM): 85.3 ± 3.2 | total intracellular glutathione (U-2 OS [6]; 10 µM): 82.6 ± 4 | total intracellular glutathione (U-2 OS [6]; 20 µM): 76.8 ± 3.8

CO[C@H]1C[C@@H]2CC[C@@H](C)[C@@](O)(O2)C(=O)C(=O)N2CCCC[C@H]2C(=O)O[C@H]([C@H](C)C[C@@H]2CC[C@@H](O)[C@H](OC)C2)CC(=O)[C@H](C)/C=C(\C)[C@@H](O)[C@@H](OC)C(=O)[C@H](C)C[C@H](C)/C=C/C=C/C=C/1C
relative cell count (U-2 OS [1]; 0.625 µM): 0.953 | relative cell count (U-2 OS [1]; 1.25 µM): 0.926 | relative cell count (U-2 OS [1]; 2.5 µM): 0.903 | relative cell count (U-2 OS [1]; 5 µM): 0.956 | relative cell count (U-2 OS [1]; 10 µM): 0.916 | relative cell count (U-2 OS [1]; 20 µM): 0.852 | cell painting activity score (U-2 OS [2]; 0.625 µM): 11.4 | cell painting activity score (U-2 OS [2]; 1.25 µM): 12.3 | cell painting activity score (U-2 OS [2]; 2.5 µM): 12.1 | cell painting activity score (U-2 OS [2]; 5 µM): 10.8 | cell painting activity score (U-2 OS [2]; 10 µM): 12.1 | cell painting activity score (U-2 OS [2]; 20 µM): 11.9 | AUC of culture confluence over time (U-2 OS [3]; 5 µM): 33.6 | AUC of culture confluence over time (U-2 OS [3]; 10 µM): 34.2 | AUC of culture confluence over time (U-2 OS [3]; 20 µM): 34.8 | cell viability (U-2 OS [4]; 5 µM): 87.3 ± 5 | cell viability (U-2 OS [4]; 10 µM): 90.6 ± 2.9 | cell viability (U-2 OS [4]; 20 µM): 80 ± 6.5 | intracellular GSH:GSSG ratio (U-2 OS [5]; 5 µM): 25.7 | intracellular GSH:GSSG ratio (U-2 OS [5]; 10 µM): 24.7 | intracellular GSH:GSSG ratio (U-2 OS [5]; 20 µM): 24.9 | total intracellular glutathione (U-2 OS [6]; 5 µM): 90.5 ± 5.3 | total intracellular glutathione (U-2 OS [6]; 10 µM): 93.7 ± 5.7 | total intracellular glutathione (U-2 OS [6]; 20 µM): 102 ± 7
